Results on 3 compounds are retold here after patent US11331268B2, “Taste masking product” (The University of Western Australia, priority 2016, dated 2022).

The conditions of data set [1]: cited from earlier work.
A further data set has as its system Sprague Dawley rats. The experiment in a line: Rat Brief-Access Taste Aversion (BATA) model. It is filed as in vivo. On the procedure: The rat ‘Brief-Access Taste Aversion’ (BATA) model was used to assess the taste of the midazolam chocolate tablet formulation relative to control samples. Ten male Sprague Dawley rats (average weight […]) previously trained for the experiments were used and two independent tasting evaluations were conducted over 2 days.
Prior to the experiments, the rats were water-deprived for 22 hours but had access to food ad libitum. Each rat was placed into the Lickometer Davis Rig MS-160 (DiLog Instruments, Tallahassee, Fla., USA) for a 40-minute session where it would be presented with 16 sipper tubes mounted on a moving rack controlled by the Davis Collect Data software. The taste samples were each presented to the rat for 8 seconds, in a random order specified by the computer program. Over the 40-minute session, a sample would have been presented to the rat four times, with a 2-second water rinse given between samples. As the rats licked on the sipper, the number of licks was recorded electronically and transmitted to a database on a computer.
The 5 mg midazolam HCl chocolate tablets were assessed against control samples, which included deionized water, vehicle (water adjusted to pH 5 with HCl), 1 mg/mL solution of midazolam in the vehicle, a 2.5 mg/mL oral midazolam syrup manufactured by AUSPMAN, and chocolate placebo tablets. Simulating the advice to patients to chew the chocolate tablet and then swallow, the placebo and midazolam-loaded chocolate tablets were prepared for the taste evaluation by grinding each chocolate tablet in 2 mL of water, which mimics the volume of saliva, using a mortar and pestle. The resultant liquid preparations were then presented to the rats. […]
Aversion to the taste of a sample was indicated by a significant reduction in the number of licks when the sample was presented to the rats. […] Data was analysed using the RStudio software (https://www.rstudio.com) and applying the non-parametric Kruskal Wallis test with post-hoc Tukey's test for paired comparisons.

The conditions of data set [2]: cited from earlier work. This is another data set of the same source.

SMILES strings stand for the structures. Where a name gives a salt, the structure may show the parent alone. Read-outs that look alike come from different tables or passages of the source. Where only a bound is given, the exact number is not on record here.

On to `Cc1ncc2n1-c1ccc(Cl)cc1C(c1ccccc1F)=NC2` [Midazolam, midazolam], for which the solubility in water in data set [1] (low pH) is over 2500 µg/mL; in data set [1] (pH>5) it was “less than 0.1 mg/ml”.
By IC50 is commonly meant the concentration at which inhibition is half-maximal. Consider `Cc1ncc2n1-c1ccc(Cl)cc1C(c1ccccc1F)=NC2` [midazolam HCl, midazolam hydrochloride], for which the IC50 in the data set on Sprague Dawley rats (Rattus norvegicus, midazolam HCl standard solutions in vehicle (water pH 5), n=2, read-out: IC50 (dose-response of number of licks)) is 300 ± 290 µg/mL. Also, in the data set on Sprague Dawley rats (rodent model), the “detection threshold for the bitter taste” value is on record as “about 0.03 mg/ml”. Also, the “concentration receiving comparable numbers of licks to blank vehicle” value with Sprague Dawley rats (standard solutions in vehicle) is “up to 0.03 mg/mL”.
Consider `COc1cccc(C2(O)CCCCC2CN(C)C)c1` (stereo not drawn) [tramadol HCl, tramadol hydrochloride], for which the “solubility in aqueous media” value in data set [2] is at most 2000 µg/mL.
